Our source for the Activity values is ChEMBL document CHEMBL4052639, “2-Isocyano glucose used in Ugi four-component reaction: An approach to enhance inhibitory effect against DNA oxidation” (Eur J Med Chem, 2017).

Calls of active or inactive are those of the source. No cut-off for these calls is given here.

Format in all cases: functional
Assay [1] in a line: Antioxidant activity assessed as reduction in AAPH-induced DNA oxidation up to 400 uM measured every 2 hrs by TBARS assay.
Assay [2] can be described thus: Antioxidant activity assessed as reduction in hydroxyl radical-induced DNA oxidation by measuring TBARS level at 400 uM after 90 mins relative to control. Set-up: scale not given: the % may be the effect or the level left.
The nature of assay [3]: Antioxidant activity assessed as reduction in Cu2+/GSH-induced DNA oxidation by measuring TBARS level at 400 uM after 90 mins relative to control. Details: scale not given: the % may be the effect or the level left.

Regarding `O=C(CN(C(=O)c1cc(O)c(O)c(O)c1)c1ccc(O)cc1)N[C@@H]1[C@@H](O)[C@H](O)[C@@H](CO)O[C@H]1O`, the result in assay [1] was Active. Further, the Activity in assay [2] came to 91.8%; in assay [3] it was 91%.
For `O=C(CN(Cc1ccccc1)C(=O)/C=C/c1ccc(O)c(O)c1)N[C@@H]1[C@@H](O)[C@H](O)[C@@H](CO)O[C@H]1O` the same measures were “Active”, 93.7% and 94.6%.
For `O=C(CN(C(=O)c1cc(O)c(O)c(O)c1)c1ccccc1)NCCc1c[nH]c2ccccc12` the same measures were “Active”, 93.8% and 96.2%.
Taken in the same sequence, the figures for `O=C(CN(C(=O)c1cc(O)c(O)c(O)c1)c1ccccc1)NC12CC3CC(CC(C3)C1)C2` were “Active”, 95.6% and 93.6%.
Consider `O=C(O)c1ccc(O)cc1`, for which the outcome in assay [1] was Active.
On the same count and under the same terms, to `O=C(O)c1cc(O)c(O)c(O)c1` belongs “Active”.
Turning to `O=C(CN(C(=O)c1cc(O)c(O)c(O)c1)c1ccccc1)N[C@@H]1[C@@H](O)[C@H](O)[C@@H](CO)O[C@H]1O`, in assay [1], the outcome was Active. The Activity in assay [2] worked out at 92.7%; in assay [3], 90.1%.
For `O=C(O)/C=C/c1ccc(O)c(O)c1`, the outcome in assay [1] was Active.
As for `O=C(CN(C(=O)c1ccccc1)c1ccccc1)N[C@@H]1[C@@H](O)[C@H](O)[C@@H](CO)O[C@H]1O`, in assay [1], the outcome was inactive. The Activity came to 100% in assay [2] and 99.3% in assay [3].
Taken in the same sequence, the figures for `O=C(CN(C(=O)c1ccc(O)cc1)c1ccc(O)cc1)N[C@@H]1[C@@H](O)[C@H](O)[C@@H](CO)O[C@H]1O` were “Active”, 94.9% and 95%.
As to `O=C(CN(C(=O)c1cc(O)c(O)c(O)c1)c1ccccc1)NC1CCCCC1`, the outcome in assay [1] was Active. Moreover, the Activity in assay [2] and in assay [3] was 97.1% in each case.
On to `O=C(CN(C(=O)c1ccc(O)cc1)c1ccccc1)N[C@@H]1[C@@H](O)[C@H](O)[C@@H](CO)O[C@H]1O`, for which, in assay [1], the result was Active. Further, the Activity was found to be 96.5% in assay [2] and 97.8% in assay [3].
Turning to `COc1cc(/C=C/C(=O)N(CC(=O)N[C@@H]2[C@@H](O)[C@H](O)[C@@H](CO)O[C@H]2O)Cc2ccccc2)ccc1O`, the result in assay [1] was Active. The Activity in assay [2] worked out at 94.7%; in assay [3] it was 92.8%.
Taken in the same sequence, the figures for `O=C(CN(C(=O)c1ccccc1)c1ccc(O)cc1)N[C@@H]1[C@@H](O)[C@H](O)[C@@H](CO)O[C@H]1O` were “Active”, 98.3% and 96.7%.
For the compound `COc1cc(/C=C/C(=O)O)ccc1O`, the result in assay [1] was Active.
